Assay results: patent publication US11980596B2 (priority 2017, dated 2024)

Key:
[1] = test system: patients with treatment-resistant depression (TRD); assay: CADSS (Example 7); settings: human, in vivo, other: intranasal
Protocol: (§1) Adverse events were monitored throughout the study. Other safety assessments (i.e., laboratory tests, vital signs, physical examination) were performed at pre-specified time points. Vital signs, the Clinician Administered Dissociative States Scale (CADSS; Bremner, “Measurement of dissociative states with the clinician-administered dissociative states scale (CADSS)”, J. Traumatic Stress, 1998, 11(1):125-136), and the 4-item positive symptom subscale from the Brief Psychiatric Rating Scale (BPRS; Overall, “The Brief Psychiatric Rating Scale. Psychological Reports”, 1962, 10:799-812) were assessed pre-dose, at 40 minutes, and 2 hours post-dose.

[2] = test system: adult female rats; settings: single intranasal dose; 200-gram rat
[3] = test system: subjects with TRD; format: in vivo, human; settings: post dose
Protocol: Transient blood pressure increases peaked for the esketamine group at approximately 40 minutes post dose and returned closer to predose levels by 1.5 hours post dose.

[4] = Protein binding; format: in vitro ADME
Text: Protein binding of esketamine was approximately 43% to 45%.

[5] = test system: patients with treatment-resistant depression (TRD); assay: GAD-7 (Example 7); format: in vivo, human
Protocol: Overall illness severity was assessed on the Clinical Global Impression of Severity (CGI-S) scale (Guy, “ECDEU Assessment Manual for Psychopharmacology—Revised (DHEW Publ No ADM 76-338)”, Rockville, Md.: U.S. Department of Health, Education, and Welfare, Public Health Service, Alcohol, Drug Abuse, and Mental Health Administration, NIMH Psychopharmacology Research Branch, Division of Extramural Research Programs; 1976, pp 218-222). Participants assessed their severity of anxiety on the Generalized Anxiety Disorder 7-item (GADS-7) Scale (See, Tables 157 and 158). See, Spitzer, “A brief measure for assessing generalized anxiety disorder—the GAD-7”, Arch. Intern. Med., 2006, 166(10): 1092-1097.

[6] = test system: patients with treatment-resistant depression (TRD); assay: Vital signs: blood pressure and heart rate (Example 7); format: in vivo, human; settings: post-dose
Protocol: as §1

[7] = Screening in vitro micronucleus test; settings: in the presence of metabolic activation
[8] = test system: male and female rats; assay: Fertility study in male and female rats; format: in vivo, rat
Protocol: The No Observed Adverse Effect Level (NOAEL) for mating and fertility is 45 mg/kg/day which is 0.6 times the esketamine exposures at MRHD of 84 mg/day.

Structure (SMILES): CN[C@]1(c2ccccc2Cl)CCCCC1=O [esketamine, (S)-2-(2-chlorophenyl)-2-(methylamino)cyclohexanone]
- Perceptual changes/dissociative symptoms (CADSS): time of peak [1]: 30 to 40 min
- Highest dose equivalent with no findings of neuronal vacuolation in the brain [2]: 45 mg/kg
- Blood pressure returned closer to predose levels by [3]: ≤ 1.5 h
- Time of peak of transient blood pressure increases [3]: approximately 40 minutes
- fraction unbound [4]: 0.55 to 0.57
- S-Ketamine QC sample long-term storage stability (at −20° C.): 707 days at −20 °C
- S-Ketamine QC sample freeze/thaw stability (freeze (−20° C.)/thaw (room temperature)): 3 freeze (−20° C.)/thaw (room temperature) cycles
- S-Ketamine QC sample bench-top stability (room temperature): 18 hours at room temperature
- GAD-7 change from baseline, LS mean (SE) ([5]; Period 1, esketamine 28 mg intranasal): −1.5 (1.34)
- GAD-7 change from baseline, LS mean (SE) ([5]; Period 1, esketamine 56 mg intranasal): −3.1 (1.34)
- GAD-7 change from baseline, LS mean (SE) ([5]; Period 1, esketamine 84 mg intranasal): −5.1 (1.30)
- GAD-7 change from baseline, LS mean (SE) ([5]; Period 2, esketamine 28 mg intranasal): −1.6 (0.87)
- GAD-7 change from baseline, LS mean (SE) ([5]; Period 2, esketamine 56 mg intranasal): 1.0 (0.98)
- GAD-7 change from baseline, LS mean (SE) ([5]; Period 2, esketamine 84 mg intranasal): −0.9 (1.02)
- Elevated blood pressure returned to the normal range by [6]: ≤ 2 h
- Genotoxicity [7]: Genotoxic effects
- Mean AUC exposure, multiple of the MRHD of 84 mg/day ([8]; 4.5 mg/kg/day intranasal): approximately 0.05 times
- Mean AUC exposure, multiple of the MRHD of 84 mg/day ([8]; 15 mg/kg/day intranasal): ~0.3 times
- Mean AUC exposure, multiple of the MRHD of 84 mg/day ([8]; 45 mg/kg/day intranasal): ~0.6 times
